# Assays:
# [1] = test system: patients with life-threatening cancer; conditions: cited from earlier work
# [2] = test system: patients with cancer-related psychiatric and existential distress; assay: Hospital Anxiety and Depression Scale (HADS), long-term follow-up of psilocybin-assisted psychotherapy trial; format: in vivo, human; conditions: for HADS Depression / HADS Anxiety / HADS Total: single 0.3 mg/kg dose with psychotherapy; for HADS Depression: baseline 5.88; for HADS Anxiety: baseline 10.56; for HADS Total: baseline 16.45
# Protocol: (§1) The present example assesses the long-term effects of a single dose of psilocybin (0.3 mg/kg) in conjunction with psychotherapy in patients with cancer-related psychiatric and existential distress.
# (§2) 29 participants were randomly assigned to one of two groups: psilocybin (0.3 mg/kg) on the first medication session followed by niacin (250 mg) on the second session (i.e. psilocybin-first group), or niacin (250 mg) on the first medication session followed by psilocybin (0.3 mg/kg) on the second session (i.e. niacin-first group). Psilocybin and niacin were administered in identically appearing gelatin capsules.
# (§3) Participants received three 2-hour preparatory psychotherapy sessions in order to review the purpose and intention of participation in the study, treatment goals, and structure of the treatment sessions. Medications were administered in 8-hour treatment sessions which included a discussion of the participant's subjective experience with the treatment team to consolidate the memory of the experience and to begin the process of post-integrative psychotherapy. Participants also received three 2-hour post-medication integration sessions (repeated after the second dosing session) to further consolidate the memory of the experience and to continue the process of psychological integration. All psychotherapy treatment sessions were delivered by a dyadic therapy team trained in a blend of psychotherapies with an evidence base to support their use in cancer patients (drawing upon principles of palliative care therapy, existential psychotherapy, cognitive-behavioural therapy, psychoanalysis therapy, and transpersonal psychology) and were taught about the safety and clinical pharmacology of psilocybin. Each therapy dyad underwent six confidential one-to-one sessions to build their alliance and exchange ideas about psychedelic therapy. The trial employed a crossover design at seven weeks following the first drug administration, with an outcome assessment at 6.5 months (26 weeks) following the second drug administration (i.e. after the crossover).
# (§4) Two long-term follow ups (LTFUs) were carried out to assess the continued effect of psilocybin. Of the original 29 participants, all 16 participants who were not deceased at the time of LTFU were contacted (the remaining 13 participants were deceased). Of the 16 participants who were contacted, 15 agreed to participate in the LTFU and completed measures through a secure online portal. One participant died (from cancer-related complications) after completing the first LTFU and prior to the second LTFU, leaving us with 14 participants at the second LTFU. The first and second LTFUs occurred on average 3.2 years (range 2.3-4.5 years) and 4.5 years (range 3.5-5.5 years) following the participants' psilocybin dosing date, respectively.
# (§5) Primary outcomes (anxiety and depression) were measured according to the following methods: • Hospital Anxiety and Depression Scale (HADS) (Zigmond and Snaith, 1983)—this is widely used in hospital settings to screen for the severity of anxiety and depression. It contains 14 questions rated on a four-point scale (total score (HAD-T) ranges from […]). Subscale scores can be calculated for depression (HADS-D) and anxiety (HADS-A). […] The HADS has shown good reliability (Cronbach's a ranging from 0.80-0.93) and has been well validated (Herrmann, 1997). • Beck Depression Inventory-II (BDI-II) (Beck et al., 1988)—a widely used self-report screening measure for depression. The BDI-II consists of 21 questions about depressive symptoms experienced over the past two weeks rated on a […] scale (total score ranges from 0-63). Scores above 12 indicate possible clinical depression. This measure has shown good reliability (internal consistency of 0.90) and factorial validity (Storch et al. 2004). • Spielberger State-Trait Anxiety Inventory (STAI) (Spielberger, 1983)—a well-known measure of anxiety consisting of scales for state (STAI-S) and trait-level anxiety (STAI-T). […]
# [3] = test system: patients with advanced-stage cancer; conditions: single moderate dose 0.2 mg/kg; cited from earlier work
# [4] = test system: patients with cancer-related psychiatric and existential distress; assay: Beck Depression Inventory-II (BDI-II), long-term follow-up; format: in vivo, human; conditions: single 0.3 mg/kg dose with psychotherapy, baseline 14.19
# Protocol: as §1, §2
# as §3, with “Each therapy dyad underwent six confidential one-to-one sessions to build their alliance and exchange ideas about psychedelic therapy. The trial employed a crossover design at seven weeks following the first drug administration, with an outcome assessment at 6.5 months (26 weeks) following the second drug administration (i.e. after the crossover).” left out
# Primary outcomes (anxiety and depression) were measured according to the following methods: • Hospital Anxiety and Depression Scale (HADS) (Zigmond and Snaith, 1983)—this is widely used in hospital settings to screen for the severity of anxiety and depression. […] Subscale scores can be calculated for depression (HADS-D) and anxiety (HADS-A). […]
# [5] = test system: patients with cancer-related psychiatric and existential distress; assay: Primary outcome measures (anxiety and depression) combined: effect sizes, clinical response and remission rates; format: in vivo, human
# Protocol: as §1, §2, §3, §4, §5
# [6] = mean score at 3.2 years, p < 0.001 vs baseline
# [7] = mean score at 4.5 years, p < 0.001 vs baseline
# [8] = mean score at 6.5-8 months, p < 0.001 vs baseline
# [9] = second LTFU point (mean 4.5 years)
smiles,measurement,setting,value
"CN(C)CCc1c[nH]c2cccc(OP(=O)(O)O)c12 [psilocybin, [3-(2-dimethylaminoethyl)-1H-indol-4-yl] dihydrogen phosphate]",patients meeting criteria for clinically significant antidepressant or anxiolytic responses,"[1]; final 6.5 month follow up point, 0.3 mg/kg with psychotherapy",60-80%
same,time post dosing up to which rapid and sustained anxiolytic and antidepressant effects were seen,[1]; single dosing session 0.3 mg/kg with psychotherapy,up to 7 weeks
same,correlation (r) of length of time between psilocybin session and follow-up with HAD-D depression change score,"[2]; Spearman, second LTFU subtracted from two-weeks post-psilocybin dose scores, p<0.01",0.70
same,HADS Depression,[2]; [6],2.25
same,HADS Anxiety,[2]; [6],5.50
same,HADS Total,[2]; [6],7.13
same,HADS Depression,"[2]; mean score at 4.5 years, p < 0.01 vs baseline",2.30
same,HADS Anxiety,[2]; [7],4.99
same,HADS Total,[2]; [7],7.34
same,HADS Depression,[2]; [8],1.75
same,HADS Anxiety,[2]; [8],2.81
same,HADS Total,[2]; [8],4.38
same,participants with clinically significant reductions in global psychological distress on the HADS-T,"[2]; second LTFU point (4.5 years, n=14), 50% or greater reduction relative to baseline",Seventy-one
same,participants with clinically significant anxiolytic response on the HADS-A,"[2]; second LTFU point (4.5 years, n=14), response = 50% or greater reduction relative to baseline",57%
same,adverse events,[3],no clinically significant adverse events
same,time after treatment up to which levels of anxiety were reduced,[3],up to 3 months
same,time after treatment up to which levels of depression were reduced,[3],up to 6 months
same,Beck Depression,"[4]; mean score at 3.2 years, p < 0.01 vs baseline",7.75
same,Beck Depression,[4]; [7],5.45
same,Beck Depression,[4]; [8],5.09
same,participants meeting criteria for clinical antidepressant or anxiolytic response and remission,[5]; 4.5 year time point,60-80%
same,"mean Cohen's d, reductions in symptoms since baseline on primary measures (anxiety and depression)",[5]; 6.5-month point,1.90
same,"range of Cohen's d, primary measures (anxiety and depression)",[5]; 6.5-month point,1.27-2.67
same,participants meeting criteria for clinical antidepressant or anxiolytic response and remission,[5]; 6.5 months after psilocybin administration,60-80%
same,"mean Cohen's d, reductions in symptoms since baseline on primary measures (anxiety and depression)",[5]; first LTFU (mean 3.2 years),1.30
same,"range of Cohen's d, primary measures (anxiety and depression)",[5]; first LTFU (mean 3.2 years),0.93-1.97
same,depression symptom remission rates,"[5]; second LTFU (4.5 years, n=14), 50% or greater reduction plus HADS-D≤7 or BDI≤12",50-79%
same,percentages of clinical responses for depression on the HADS-D and BDI,"[5]; second LTFU (4.5 years, n=14), 50% or greater reduction relative to baseline",57-79%
same,"mean Cohen's d, reductions in symptoms since baseline on primary measures (anxiety and depression)",[5]; [9],1.41
same,"range of Cohen's d, primary measures (anxiety and depression)",[5]; [9],0.86-1.89
